Laboratory results from the C3SDB collision cross section collection.
“And” between values parts separate entries of the source, which are not always exact repeats. Identical values can stand only once.

What was measured:
[1] = instrument: TW, calibrated with phosphatidylcholines (ESI+) and phosphatidylethanolamines (ESI-)
[2] = instrument: DT, single field, calibrated with Agilent tune mix (Agilent)
[3] = instrument: DT, stepped-field
[4] = [M+Na]+; instrument: DT; stepped-field

## CCCCCCCCCCCCC=CC[C@@H](O)[C@H](CO)NC(=O)CCCCCCCCCCCCCCCCCCCCC [Cer(d18:0/22:1)]
[1]; [M+H]+
  collision cross section (N2): 271.9 Å²

## CCCCCCCCCCCCC=CC[C@@H](O)[C@H](CO)NC(=O)CC=CCCCCCCCCCCCCCC [Cer(d18:1/18:1)]
[1]; [M+H]+
  collision cross section (N2): 257.6 Å²
[1]; [M-H]-
  collision cross section (N2): 248.5 Å²

## CCCCCCCCCCCCC=CC[C@@H](O)[C@H](CO)NC(=O)CCCCCCCCCCCCCCCCCCC [Cer(d18:1/20:0)]
[1]; [M+H]+
  collision cross section (N2): 266.5 Å²
[1]; [M-H]-
  collision cross section (N2): 255.8 Å²

## CCCCCCCCCCCCC=CC[C@@H](O)[C@H](CO)NC(=O)CCCCCCCCCCCCCCCCCCCCC [Cer(d18:1/22:0)]
[1]; [M+H]+
  collision cross section (N2): 271.8 Å²
[1]; [M-H]-
  collision cross section (N2): 262 Å²

## CCCCCCCCCCCCC=CC[C@@H](O)[C@H](CO)NC(=O)CCCCCCCCCCCCCCCCCCCCCCC [Cer(d18:1/24:0)]
[1]; [M+H]+
  collision cross section (N2): 279.1 Å²
[1]; [M-H]-
  collision cross section (N2): 268 Å²

## CCCCCCCCCCCCC=CC[C@@H](O)[C@H](CO)NC(=O)CC=CCCCCCCCCCCCCCCCCCCCC [Cer(d18:1/24:1)]
[1]; [M+H]+
  collision cross section (N2): 276.8 Å²
[1]; [M-H]-
  collision cross section (N2): 266.4 Å²

## CCCCCCCCCCCCCCCC(=O)O[C@@H](CO)COC(=O)CCCCCCCCCCC [DG(14:0/14:0)]
[1]; [M+H-H2O]+
  collision cross section (N2): 242.3 Å²

## CCCCCCCCCCCCCCCCCCCCCC(=O)O[C@@H](CO)COC(=O)CCCCCCCCCCCCC [DG(18:0/18:0)]
[1]; [M+H-H2O]+
  collision cross section (N2): 270.5 Å²

## CCCCC/C=C\C/C=C\C/C=C\CCCCC(=O)OC[C@H](CO)OC(=O)CCCCCCC/C=C\CCCCCCCC [DG(18:2/18:2)]
[1]; [M+H-H2O]+
  collision cross section (N2): 255.9 Å²

## CCCCCCCCCCCCC=CC[C@@H](O)[C@H](CO[C@@H]1O[C@H](CO)[C@@H](O)C(O)C1O)NC(=O)CCCCCCCCCCCCCCCCC (stereo partly drawn) [GlcCer(36:1)]
[2]; [M+HCOO]-
  collision cross section (N2): 283.3 Å²
[2]; [M+H]+
  collision cross section (N2): 284.1 Å²
[2]; [M+Na]+
  collision cross section (N2): 283.5 Å²
[3]; [M+Na]+
  collision cross section (N2): 286.7 Å²

## CCCCCCCCCCCCC=CC[C@@H](O)[C@H](CO[C@@H]1O[C@H](CO)[C@@H](O)C(O)C1O)NC(=O)CCCCCCCCCCCCCCCCCCCCC (stereo partly drawn) [GlcCer(40:1)]
[2]; [M+HCOO]-
  collision cross section (N2): 294.5 Å²
[2]; [M+H]+
  collision cross section (N2): 295.1 Å²
[2]; [M+Na]+
  collision cross section (N2): 296.5 Å²
[3]; [M+Na]+
  collision cross section (N2): 301.1 Å²

## CCCCCCCCCCCCC=CC[C@@H](O)[C@H](CO[C@@H]1O[C@H](CO)[C@@H](O)C(O)C1O)NC(=O)CCCCCCCCCCCCCCCCCCCCCC (stereo partly drawn) [GlcCer(41:1)]
[2]; [M+H]+
  collision cross section (N2): 298.5 Å²
[3]; [M+Na]+
  collision cross section (N2): 302.5 Å²

## CCCCCCCCCCCCC=CC[C@@H](O)[C@H](CO[C@@H]1O[C@H](CO)[C@@H](O)C(O)C1O)NC(=O)CCCCCCCCCCCCCCCCCCCCCCC (stereo partly drawn) [GlcCer(42:1)]
[2]; [M+HCOO]-
  collision cross section (N2): 299.4 Å²
[2]; [M+H]+
  collision cross section (N2): 301.5 Å²
[2]; [M+Na]+
  collision cross section (N2): 302.8 Å²
[3]; [M+Na]+
  collision cross section (N2): 307.5 Å²

## OC[C@H]1O[C@@](CO)(O[C@H]2O[C@H](CO)[C@@H](O)[C@H](O)[C@H]2O)[C@@H](O[C@H]2O[C@H](CO)[C@@H](O)[C@H](O)[C@H]2O)[C@@H]1O [Melezitose]
[3]; [M+Cs]+
  collision cross section (N2): 205.8 Å²
[3]; [M+H]+
  collision cross section (N2): 202.6 Å²
[3]; [M+K]+
  collision cross section (N2): 221.9 Å²
[3]; [M+Li]+
  collision cross section (N2): 202.9 Å²
[3]; [M+Na]+
  collision cross section (N2): 202.7 Å²
[3]; [M+Rb]+
  collision cross section (N2): 204.1 Å² and 219.2 Å²
[4]
  collision cross section (N2): 203.23 Å²

## CCCCCCC/C=C\CCCCCCCC(=O)OC[C@H](COP(=O)([O-])OCC[N+](C)(C)C)OC(=O)CCCCCCC/C=C\CCCCCCCC [PC(35:2)]
[2]; [M+H]+
  collision cross section (N2): 286.4 Å²
[3]; [M+K]+
  collision cross section (N2): 297.7 Å²

## CC/C=C\C/C=C\C/C=C\C/C=C\CCCCC(=O)O[C@H](COCCCCCCCCCCCCCCCC)COP(=O)(O)OCCN [PE(o34:4)]
[3]; [M+Na]+
  collision cross section (N2): 275.9 Å²

## CCCCC/C=C\C/C=C\C/C=C\C/C=C\CCCC(=O)O[C@H](COC(=O)CCCCCCCCCCCCCCC)COP(=O)(O)OC[C@H](N)C(=O)O [PS(36:4)]
[3]; [M+Na]+
  collision cross section (N2): 287.8 Å²

## CCCCCCC/C=C\CCCCCCCC(=O)O[C@H](COC(=O)CCCCCCCCC/C=C\CCCCCCCC)COP(=O)(O)OC[C@H](N)C(=O)O [PS(37:2)]
[3]; [M+K]+
  collision cross section (N2): 293 Å²

## CC/C=C\C/C=C\C/C=C\C/C=C\C/C=C\C/C=C\CCC(=O)OC[C@H](COP(=O)(O)OC[C@H](N)C(=O)O)OC(=O)CCCCCCC/C=C\CCCCCCC [PS(39:7)]
[3]; [M+Na]+
  collision cross section (N2): 293.1 Å²

## CC/C=C\C/C=C\C/C=C\C/C=C\C/C=C\C/C=C\CCC(=O)OC[C@H](COP(=O)(O)OC[C@H](N)C(=O)O)OC(=O)CCCCCCC/C=C\CCCCCCCCC [PS(41:7)]
[3]; [M+Na]+
  collision cross section (N2): 299.2 Å²

## CC/C=C\C/C=C\C/C=C\C/C=C\C/C=C\CCCC(=O)OC[C@H](COP(=O)(O)OC[C@H](N)C(=O)O)OC(=O)CCCCCCCCCCC/C=C\C/C=C\CCCCC [PS(42:7)]
[3]; [M+Na]+
  collision cross section (N2): 304.7 Å²

## CCC=CCC=CCC=CCC=CCC=CCC=CCC(=O)OC[C@H](COP(=O)(O)OC[C@H](N)C(=O)O)OC(=O)CC=CCC=CCC=CCC=CCC=CCC=CCC [PS(42:12)]
[3]; [M+Na]+
  collision cross section (N2): 293.7 Å²

## CCCCC/C=C\C/C=C\C/C=C\C/C=C\CCCCCC(=O)O[C@H](COC(=O)CCCCCCCCC/C=C\CCCCCCCCCC)COP(=O)(O)OC[C@H](N)C(=O)O [PS(44:5)]
[3]; [M+Na]+
  collision cross section (N2): 311.5 Å²

## CC/C=C\C/C=C\C/C=C\C/C=C\C/C=C\C/C=C\CCC(=O)OC[C@H](COP(=O)(O)OC[C@H](N)C(=O)O)OC(=O)CCCCCCCCC/C=C\CCCCCCCCCC [PS(44:7)]
[3]; [M+Na]+
  collision cross section (N2): 311.8 Å²

## CCCCC/C=C\C/C=C\C/C=C\C/C=C\CCCCCC(=O)OC[C@H](COP(=O)(O)OC[C@H](N)C(=O)O)OC(=O)CCCCC/C=C\C/C=C\C/C=C\C/C=C\CCCCC [PS(44:8)]
[3]; [M+Na]+
  collision cross section (N2): 306.8 Å²

## CC/C=C\C/C=C\C/C=C\C/C=C\C/C=C\C/C=C\CCC(=O)OC[C@H](COP(=O)(O)OC[C@H](N)C(=O)O)OC(=O)CC/C=C\C/C=C\C/C=C\C/C=C\C/C=C\C/C=C\CC [PS(44:12)]
[3]; [M+Na]+
  collision cross section (N2): 299.7 Å²

## CCCCCCCCCCC=CCC=CCC=CCC=CCC(=O)OC[C@H](COP(=O)(O)OC[C@H](N)C(=O)O)OC(=O)CC=CCC=CCC=CCC=CCCCCCCCCCC [PS(46:8)]
[3]; [M+Na]+
  collision cross section (N2): 313.2 Å²

## OC[C@H]1OC(OC[C@H]2OC(O[C@]3(CO)O[C@H](CO)[C@@H](O)[C@@H]3O)[C@H](O)[C@@H](O)[C@@H]2O)[C@H](O)[C@@H](O)[C@H]1O (stereo partly drawn) [Raffinose]
[3]; [M+K]+
  collision cross section (N2): 212.7 Å²
[3]; [M+Na]+
  collision cross section (N2): 210.7 Å²
[3]; [M+Rb]+
  collision cross section (N2): 218.7 Å² and 229.7 Å²

## CCCCCCCCCCCCC=CC[C@@H](O)[C@H](COP(=O)([O-])OCC[N+](C)(C)C)NC(=O)CCCCCCCCCCCCCCCCCC [SM(37:1)]
[2]; [M+H]+
  collision cross section (N2): 290.8 Å²
[3]; [M+Na]+
  collision cross section (N2): 294.8 Å²

## CCCCCCCCCCCCC=CC[C@@H](O)[C@H](COP(=O)([O-])OCC[N+](C)(C)C)NC(=O)CCCCCCCCCCCCCCCCCCCC [SM(39:1)]
[2]; [M+H]+
  collision cross section (N2): 297.4 Å²
[3]; [M+Na]+
  collision cross section (N2): 301.6 Å²

## CCCCCCCCCCCCC=CC[C@@H](O)[C@H](COP(=O)([O-])OCC[N+](C)(C)C)NC(=O)CC=CCC=CCCCCCCCCCCCCCCC [SM(40:3)]
[2]; [M+H]+
  collision cross section (N2): 294.6 Å²
[3]; [M+Na]+
  collision cross section (N2): 299.9 Å²

## CCCCCCCCCCCCC=CC[C@@H](O)[C@H](COP(=O)([O-])OCC[N+](C)(C)C)NC(=O)CCCCCCCCCCCCCCCCCCCCCCCCC [SM(44:1)]
[3]; [M+Na]+
  collision cross section (N2): 315.1 Å²

## CCCCCCCCCCCCC=CC[C@@H](O)[C@H](COP(=O)([O-])OCC[N+](C)(C)C)NC(=O)CC=CCC=CCCCCCCCCCCCCCCCCCCC [SM(44:3)]
[3]; [M+Na]+
  collision cross section (N2): 312 Å²

## CCCCCC[N+](CCCCCC)(CCCCCC)CCCCCC [TAA6]
[3]; [M]+
  collision cross section (N2): 213.5 Å²

## CCCCCCCC[N+](CCCCCCCC)(CCCCCCCC)CCCCCCCC [TAA8]
[3]; [M]+
  collision cross section (N2): 256.6 Å²

## CCCCCCCCCC[N+](CCCCCCCCCC)(CCCCCCCCCC)CCCCCCCCCC [TAA10]
[3]; [M]+
  collision cross section (N2): 293.5 Å²

## CCCCCCCCCCCCCCCC[N+](CCCCCCCCCCCCCCCC)(CCCCCCCCCCCCCCCC)CCCCCCCCCCCCCCCC [TAA16]
[3]; [M]+
  collision cross section (N2): 361.5 Å²

## CC(C)[C@H](N)C(=O)N[C@@H](Cc1ccccc1)C(=O)N[C@@H](C)C(=O)N[C@@H](CC(=O)O)C(=O)N[C@@H](Cc1ccc(O)cc1)C(=O)N[C@@H](CCC(=O)O)C(=O)N[C@@H](CCC(=O)O)C(=O)N[C@@H](Cc1ccc(O)cc1)C(=O)N[C@H](C(=O)N[C@@H](CCCCN)C(=O)O)C(C)C [VFADYEEYVK]
[3]; [M+H]+
  collision cross section (N2): 366.4 Å²

## CCC(C)[C@H](NC(=O)[C@@H](N)C(C)C)C(=O)N[C@@H](Cc1ccccc1)C(=O)N[C@@H](CC(C)C)C(=O)N[C@@H](CCC(=O)O)C(=O)N[C@@H](CC(N)=O)C(=O)N[C@@H](Cc1ccc(O)cc1)C(=O)N[C@@H](CCCNC(=N)N)C(=O)O (stereo partly drawn) [VIFLENYR]
[3]; [M+H]+
  collision cross section (N2): 318.3 Å²

## CC(C)C[C@H](NC(=O)[C@H](C)NC(=O)[C@H](CO)NC(=O)[C@@H](N)C(C)C)C(=O)N[C@@H](Cc1ccc(O)cc1)C(=O)N[C@@H](CCCCN)C(=O)O [VSALYK]
[3]; [M+H]+
  collision cross section (N2): 261.8 Å² and 254 Å²

## CC(C)C[C@H](NC(=O)[C@H](CO)NC(=O)[C@@H](N)C(C)C)C(=O)N[C@@H](C)C(=O)N[C@@H](CCC(=O)O)C(=O)N[C@@H](CCCCN)C(=O)O [VSLAEK]
[3]; [M+H]+
  collision cross section (N2): 249 Å²
